The results in this text go back to patent publication US8513229B2, “4-Azetidinyl-1-phenyl-cyclohexane antagonists of CCR2” (Janssen Pharmaceutica NV, priority 2009, dated 2013).

In this test the target is T1, CCR2 (Homo sapiens, UniProt P41597).
T1 construct: host or cells: THP-1 human monocytic cells
T1 sequence (P41597 1-360 isoform P41597-2): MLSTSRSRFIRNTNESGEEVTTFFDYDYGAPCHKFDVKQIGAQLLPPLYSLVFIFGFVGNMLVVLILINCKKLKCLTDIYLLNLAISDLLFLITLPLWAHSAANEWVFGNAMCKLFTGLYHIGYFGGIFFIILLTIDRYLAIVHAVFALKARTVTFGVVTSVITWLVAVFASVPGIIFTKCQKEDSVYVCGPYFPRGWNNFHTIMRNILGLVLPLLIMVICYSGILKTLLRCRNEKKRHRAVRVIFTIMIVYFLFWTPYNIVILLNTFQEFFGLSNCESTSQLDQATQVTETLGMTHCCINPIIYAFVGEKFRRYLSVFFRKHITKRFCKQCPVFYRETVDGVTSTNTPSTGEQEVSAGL
Briefly: MCP-1 Receptor Binding Assay in THP-1 Cells. The settings on record: 0.5 nM 125I labeled MCP-1, 2 hours at 30° C., read-out: Inhibition of MCP-1 Binding IC50 CCR2 Binding. Here is the method:
MCP-1 Receptor Binding Assay in THP-1 Cells
Human monocytic cell line THP-1 cells were obtained from American Type Culture Collection (Manassas, Va., USA). […] The cell density was maintained […].
1 μM cold MCP-1 was used for nonspecific binding.
In general, IC50 refers to the concentration at which inhibition is half-maximal. Regarding `CN(C)c1ccc(C2(O)CCC(N3CC(NC(=O)CNC(=O)c4cccc(C(F)(F)F)c4)C3)CC2)cc1` (single isomer, unassigned) [Example 54a, N-({1-[4-(4-Dimethylamino-phenyl)-4-hydroxy-cyclohexyl]-azetidin-3-ylcarbamoyl}-methyl)-3-trifluoromethyl-benzamide], the half-maximal inhibitory concentration (IC50) came to 62 nM. Turning to `NC(=O)c1ccc(C2(O)CCC(N3CC(NC(=O)CNC(=O)c4cccc(C(F)(F)F)c4)C3)CC2)cc1` (single isomer, unassigned) [Example 55a, N-({1-[4-(4-benzamide)-4-hydroxy-cyclohexyl]-azetidin-3-ylcarbamoyl}-methyl)-3-trifluoromethyl-benzamide], the half-maximal inhibitory concentration (IC50) worked out at 5300 nM. Consider `COc1ccccc1C1(O)CCC(N2CC(NC(=O)CNC(=O)c3cccc(C(F)(F)F)c3)C2)CC1` (single isomer, unassigned) [Example 56a, N-({1-[4-Hydroxy-4-(2-methoxy-phenyl)-cyclohexyl]-azetidin-3-ylcarbamoyl}-methyl)-3-trifluoromethyl-benzamide], for which the IC50 stood at 5200 nM. On to `COc1ccc(C2(O)CCC(N3CC(NC(=O)CNC(=O)c4cccc(C(F)(F)F)c4)C3)CC2)cc1F` (single isomer, unassigned) [Example 57a, N-({1-[4-(3-Fluoro-4-methoxy-phenyl)-4-hydroxy-cyclohexyl]-azetidin-3-ylcarbamoyl}-methyl)-3-trifluoromethyl-benzamide], for which the half-maximal inhibitory concentration (IC50) stood at 33 nM. Consider `Nc1cccc(C2(O)CCC(N3CC(NC(=O)CNC(=O)c4cccc(C(F)(F)F)c4)C3)CC2)c1` (single isomer, unassigned) [Example 58a, N-({1-[4-(3-Amino-phenyl)-4-hydroxy-cyclohexyl]-azetidin-3-ylcarbamoyl}-methyl)-3-trifluoromethyl-benzamide], for which the IC50 is 52 nM.

Regarding `CCn1c(=O)oc2ccc(C3(O)CCC(N4CC(NC(=O)CNC(=O)c5cccc(C(F)(F)F)c5)C4)CC3)cc21` (single isomer, unassigned) [Example 65a, N-({1-[4-(3-Ethyl-2-oxo-2,3-dihydro-benzooxazol-5-yl)-4-hydroxy-cyclohexyl]-azetidin-3-ylcarbamoyl}-methyl)-3-trifluoromethyl-benzamide], the half-inhibitory concentration (IC50) stood at 150 nM.

Regarding `O=C(CNC(=O)c1ccc(F)c(C(F)(F)F)c1)NC1CN(C2CCC(c3ccccc3)CC2)C1` (single isomer, unassigned) [Example 71a, 4-Fluoro-N-{[1-(4-phenyl-cyclohexyl)-azetidin-3-ylcarbamoyl]-methyl}-3-trifluoromethyl-benzamide], the IC50 worked out at 200 nM. Turning to `O=C(CNC(=O)c1cc(C(F)(F)F)cc(C(F)(F)F)c1)NC1CN(C2CCC(c3ccccc3)CC2)C1` (single isomer, unassigned) [Example 75a, N-{[1-(4-Phenyl-cyclohexyl)-azetidin-3-ylcarbamoyl]-methyl}-3,5-bis-trifluoromethyl-benzamide], the 50% inhibitory concentration (IC50) is 4700 nM. Next, `O=C(CNC(=O)c1cc(F)cc(C(F)(F)F)c1)NC1CN(C2CCC(c3ccccc3)CC2)C1` (single isomer, unassigned) [Example 76a, 3-Fluoro-N-{[1-(4-phenyl-cyclohexyl)-azetidin-3-ylcarbamoyl]-methyl}-5-trifluoromethyl-benzamide]: 220 nM.

In the case of `NC1(c2ccccc2)CCC(N2CC(NC(=O)CNC(=O)c3cccc(C(F)(F)F)c3)C2)CC1` (single isomer, unassigned) [Example 84a, N-{[1-(4-Amino-4-phenyl-cyclohexyl)-azetidin-3-ylcarbamoyl]-methyl}-3-trifluoromethyl-benzamide], the IC50 was 240 nM.

Regarding `NC1(c2ccc3c(c2)OCO3)CCC(N2CC(NC(=O)CNC(=O)c3cccc(C(F)(F)F)c3)C2)CC1` (single isomer, unassigned) [Example 85a, N-{[1-(4-Amino-4-benzo[1,3]dioxol-5-yl-cyclohexyl)-azetidin-3-ylcarbamoyl]-methyl}-3-trifluoromethyl-benzamide], the concentration for half-maximal inhibition (IC50) was 280 nM. Next, `COc1cccc(C2(N)CCC(N3CC(NC(=O)CNC(=O)c4cccc(C(F)(F)F)c4)C3)CC2)c1` (single isomer, unassigned) [Example 87a, N-({1-[4-Amino-4-(3-methoxy-phenyl)-cyclohexyl]-azetidin-3-ylcarbamoyl}-methyl)-3-trifluoromethyl-benzamide]: 330 nM; `O=C(CNC(=O)c1cccc(C(F)(F)F)c1)NC1CN(C2CCC(c3ccc(C(=O)O)cc3)CC2)C1` (stereo not drawn) [Example 10, 4-(4-{3-[2-(3-Trifluoromethyl-benzoylamino)-acetylamino]-azetidin-1-yl}-cyclohexyl)-benzoic acid]: 70 nM. Consider `O=C(CNC(=O)c1cccc(C(F)(F)F)c1)NC1CN(C2CCC(c3cccc(C(=O)O)c3)CC2)C1` (stereo not drawn) [Example 12, 3-(4-{3-[2-(3-Trifluoromethyl-benzoylamino)-acetylamino]-azetidin-1-yl}-cyclohexyl)-benzoic acid], for which the concentration for half-maximal inhibition (IC50) stood at 220 nM.

For `O=C(CNC(=O)c1cccc(C(F)(F)F)c1)NC1CN(C2CCC(c3ccc(N4CCCC4)cc3)CC2)C1` (stereo not drawn) [Example 13, N-({1-[4-(4-Pyrrolidin-1-yl-phenyl)-cyclohexyl]-azetidin-3-ylcarbamoyl}-methyl)-3-trifluoromethyl-benzamide], the concentration for half-maximal inhibition (IC50) worked out at 61 nM. Next, `Nc1ccc(C2CCC(N3CC(NC(=O)CNC(=O)c4cccc(C(F)(F)F)c4)C3)CC2)cc1` (stereo not drawn) [Example 15, N-({1-[4-(4-Amino-phenyl)-cyclohexyl]-azetidin-3-ylcarbamoyl}-methyl)-3-trifluoromethyl-benzamide]: 337 nM; `CS(=O)(=O)Nc1ccc(C2CCC(N3CC(NC(=O)CNC(=O)c4cccc(C(F)(F)F)c4)C3)CC2)cc1` (stereo not drawn) [Example 16, N-({1-[4-(4-Methanesulfonylamino-phenyl)-cyclohexyl]-azetidin-3-ylcarbamoyl}-methyl)-3-trifluoromethyl-benzamide]: 100 nM; `CC(C)(C)NC(=O)Nc1ccc(C2CCC(N3CC(NC(=O)CNC(=O)c4cccc(C(F)(F)F)c4)C3)CC2)cc1` (stereo not drawn) [Example 18, N-[(1-{4-[4-(3-tert-Butyl-ureido)-phenyl]-cyclohexyl}-azetidin-3-ylcarbamoyl)-methyl]-3-trifluoromethyl-benzamide]: above 25000 nM. `NC(=O)Nc1ccc(C2CCC(N3CC(NC(=O)CNC(=O)c4cccc(C(F)(F)F)c4)C3)CC2)cc1` (stereo not drawn) [Example 19, 3-Trifluoromethyl-N-({1-[4-(4-ureido-phenyl)-cyclohexyl]-azetidin-3-ylcarbamoyl}-methyl)-benzamide]: the 50% inhibitory concentration (IC50) came to 130 nM. Take `N=C(N)Cc1ccc(C2CCC(N3CC(NC(=O)CNC(=O)c4cccc(C(F)(F)F)c4)C3)CC2)cc1` (stereo not drawn) [Example 22, N-({1-[4-(4-Carbamimidoylmethyl-phenyl)-cyclohexyl]-azetidin-3-ylcarbamoyl}-methyl)-3-trifluoromethyl-benzamide]: the IC50 stood at 8600 nM. For `O=C(CNC(=O)c1cccc(C(F)(F)F)c1)NC1CN(C2CCC(c3ccc(Cc4nn[nH]n4)cc3)CC2)C1` (stereo not drawn) [Example 23, N-[(1-{4-[4-(2H-Tetrazol-5-ylmethyl)-phenyl]-cyclohexyl}-azetidin-3-ylcarbamoyl)-methyl]-3-trifluoromethyl-benzamide], the half-maximal inhibitory concentration (IC50) came out at 260 nM.
